Measured values from PubChem BioAssay AID732 (Emory University Molecular Libraries Screening Center, 2007).
Several values for one entry are separate records, joined by “and”; a condition that tells them apart may be missing. Equal values may be shown once. Activity calls are given as the source filed them. The rule behind the calls is not given here.

Tested on: in vivo angiogenesis, blood vessel count
Assay: angiogenesis inhibition in living animals, in vivo study, HTS (AID 732);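 note: zebrafish embryos dosed at one day post fertilization; 0% = reference inhibitor and 100% = plate mean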
Settings: active compounds read low;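 tested at 30 µM in the well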

SMILES	vessel count % control
CC(C)=CCC/C(C)=C/CC/C(C)=C/CSc1ccccc1C(=O)O	78.4% (inactive)
NC(N)=N/N=C/c1c(Cl)cccc1Cl	112% (inactive)
C1COC(NC(C2CC2)C2CC2)=N1	100% (inactive)
O=c1[nH]cc(F)c(=O)[nH]1	111% (inactive)
CC(C)NC[C@H](O)COc1cccc2[nH]ccc12	97.6% (inactive) and 70.7% (inactive)
NC(=O)c1ccccc1	92% (inactive)
CN1CCC23CCCC[C@H]2C1Cc1ccc(O)cc13 (stereo partly specified)	100% (inactive)
CN1C2CCC1CC(OC(=O)C(CO)c1ccccc1)C2 (stereo unspecified)	120% (inactive) and 116% (inactive)
CC[N+](C)(C)Cc1ccccc1Br	116% (inactive)
CN(C)CCOC(c1ccccc1)c1ccccc1	86.5% (inactive)
COc1ccc(Cc2nccc3cc(OC)c(OC)cc23)cc1OC	110% (inactive)
NCC(O)C1CCCCCCC1 (stereo unspecified)	95.9% (inactive)
COc1ccc2c(c1OC)C(=O)O[C@@H]2[C@H]1c2c(cc3c(c2OC)OCO3)CCN1C	127% (inactive)
CCc1cccc2c3c([nH]c12)C(CC)(CC(=O)O)OCC3 (stereo unspecified)	83.6% (inactive)
c1cnc2c(c1)ccc1cccnc12	0% (inactive)
N=C(N)c1ccc(OCCCCCOc2ccc(C(=N)N)cc2)cc1 (tested in a mixture with another compound)	99.1% (inactive)
Nc1cc(Cl)c(NC2=NCCN2)c(Cl)c1	114% (inactive)
CCN1CCCC1CNC(=O)c1cc(S(N)(=O)=O)ccc1OC (stereo unspecified)	112% (inactive)
CCn1cnc2c(Nc3cccc(Cl)c3)nc(N[C@@H]3CCCC[C@@H]3N)nc21	88.4% (inactive)
O=C(O)c1cc(=O)c2ccc(Cl)cc2[nH]1	110% (inactive)
NCCNS(=O)(=O)c1cccc2cnccc12	98.2% (inactive)
NC(N)=NC(=O)c1nc(Cl)c(N2CCCCCC2)nc1N	119% (inactive)
CCCCCN(CCCCC)C(=O)C(CCC(=O)O)NC(=O)c1ccc(Cl)c(Cl)c1 (stereo unspecified)	81.3% (inactive)
CCO/C([O-])=N/c1c[n+](N2CCOCC2)no1	100% (inactive)

SMILES	vessel count % control
COc1ccccc1N1CCN(CCN(C(=O)c2ccc(F)cc2)c2ccccn2)CC1	103% (inactive)
C[C@H](Cc1ccccc1)Nc1ncnc2c1ncn2[C@@H]1O[C@H](CO)[C@H](O)C1O (stereo partly specified)	99.9% (inactive)
COc1cc2c(cc1OC)[C@@H](c1ccccc1)CN(C)CC2	91.5% (inactive)
O=c1[nH]ccc2c(O)cccc12	0% (inactive)
COc1ccc(C(=O)NCc2cccnc2)cc1C(=O)NCc1cccnc1	109% (inactive)
O=c1c(O)c(-c2cc(O)c(O)c(O)c2)oc2cc(O)cc(O)c12	87.9% (inactive)
CCOC(=O)c1ncn2c1[C@@H]1CCCN1C(=O)c1cc(OC)ccc1-2	102% (inactive)
OCC1O[C@H](O)C(Cl)C(O)C1O (stereo partly specified)	100% (inactive)
O=C(O)c1ccccc1Nc1ccccc1	109% (inactive)
CC(C)(C)c1o[nH]c(=O)c1CC(N)C(=O)O (stereo unspecified)	106% (inactive)
CC(=O)[C@H]1CC[C@H]2[C@@H]3CC[C@H]4C[C@H](O)CC[C@]4(C)[C@H]3C(=O)C[C@]12C	111% (inactive)
Cc1nccc2c1[nH]c1ccccc12	86.1% (inactive)
NC[C@H](O)c1ccc(O)c(O)c1	86.6% (inactive)
Cc1nc2n(c(=O)c1CCN1CCC(c3noc4cc(F)ccc34)CC1)CCCC2	104% (inactive)
N=C1Sc2ccccc2C2=NCCCN12	104% (inactive)
CN(CCOc1ccc(C[C@H](Nc2ccccc2C(=O)c2ccccc2)C(=O)O)cc1)c1ccccn1	100% (inactive)
CCN(CC)CCNC(=O)c1cc(Cl)c(N)cc1OC	99.4% (inactive)
C[C@@](Cc1ccc(O)c(O)c1)(NN)C(=O)O	94.6% (inactive)
O=C(Nc1cccc(C(=O)Nc2ccc(S(=O)(=O)O)c3cc(S(=O)(=O)O)cc(S(=O)(=O)O)c23)c1)Nc1cccc(C(=O)Nc2ccc(S(=O)(=O)O)c3cc(S(=O)(=O)O)cc(S(=O)(=O)O)c23)c1	88.2% (inactive)
COc1cc(C(O)CN)ccc1O (stereo unspecified)	83.3% (inactive)
CN1CCN(c2nc3cc(C(F)(F)F)ccc3n3cccc23)CC1	100% (inactive)
CCc1c(C)[nH]c2c1C(=O)C(CN1CCOCC1)CC2 (stereo unspecified)	93.5% (inactive)
COc1cc(CC(C)N)c(OC)cc1I (stereo unspecified)	79.5% (inactive)
O=C1C2C=CC=CC2=NC(=S)N1CCN1CCC(=C(c2ccc(F)cc2)c2ccc(F)cc2)CC1 (stereo unspecified)	78.2% (inactive)

SMILES	vessel count % control
CCCN(CCC)C1CCc2cccc(O)c2C1 (stereo unspecified)	111% (inactive)
C[N+](C)(C)CCOC(=O)CCC(=O)OCC[N+](C)(C)C	94.4% (inactive)
O=C(O)C1CCCNC1 (stereo unspecified)	120% (inactive)
C[N+](C)(C)CCOC(=O)CBr	95.6% (inactive)
O=c1ccn([C@@H]2O[C@H](COP(=O)(O)OP(=O)(O)O)[C@@H](O)[C@H]2O)c(=O)[nH]1	140% (inactive)
CN1CC[C@@]2(C)c3cc(O)ccc3N(C)C12 (stereo partly specified)	95.1% (inactive)
CCCn1c(=O)c2[nH]c(C3CCCC3)nc2n(CCC)c1=O	78.9% (inactive)
CC1=C(CC(=O)O)c2cc(F)ccc2/C1=C\c1ccc(S(C)=O)cc1 (stereo unspecified)	89.8% (inactive)
O=c1c(O)c(-c2ccc(O)c(O)c2)oc2cc(O)cc(O)c12	115% (inactive)
COc1ccc2cc([C@H](C)C(=O)O)ccc2c1	101% (inactive)
COc1cc(C(=O)OCCCN2CCCN(CCCOC(=O)c3cc(OC)c(OC)c(OC)c3)CC2)cc(OC)c1OC	116% (inactive)
COc1cc2ncnc(Nc3cccc(Cl)c3)c2cc1OC	34.6%
N[C@@H](Cc1c[nH]c2ccccc12)C(=O)O	88.5% (inactive)
CCCN1CCO[C@@H]2c3cc(O)ccc3OC[C@H]21	69.9% (inactive) and 97.2% (inactive)
CCCN(CCC)CCc1cccc2c1CC(=O)N2	96.5% (inactive)
C#C[C@]1(O)CC[C@H]2[C@@H]3CCC4=Cc5oncc5CC4(C)[C@H]3CCC21C (stereo partly specified)	118% (inactive)
Cc1ccc(Cl)c(Nc2ccccc2C(=O)O)c1Cl	90.3% (inactive)
COC(=O)[C@H]1[C@H]2C[C@@H]3c4[nH]c5cc(OC)ccc5c4CCN3C[C@H]2C[C@@H](OC(=O)c2cc(OC)c(OC)c(OC)c2)[C@@H]1OC	75.8% (inactive)
CSc1ccc2c(c1)N(CCC1CCCCN1C)c1ccccc1S2 (stereo unspecified)	102% (inactive)
CC(=O)NCCc1ccc(O)c(O)c1	105% (inactive)
CN1CCC(c2c[nH]c3ccc(O)cc23)CC1	95.9% (inactive)
C[C@@H](Oc1ccc(Oc2cnc3ccc(Cl)cc3n2)cc1)C(=O)O	80.3% (inactive)
O=C(c1ccc(F)cc1)C1CCN(CCn2c(=O)[nH]c3ccccc3c2=O)CC1	103% (inactive)
